Measurements published in patent publication US20170000902A1, “EGFR-TARGETED NANOPARTICLES” (CALIFORNIA INSTITUTE OF TECHNOLOGY, priority 2014, published 2017).

Test system: EGFR mRNA
Test: siEGFR knock down of EGFR mRNA expression
Assay type: cell-based
Conditions: 50 picomolar concentration of siRNA; expression knocked down to this level
Text: Nanoparticles were designed to specifically target EGFR-positive non-small cell lung cancer (NSCLC) cells and deliver siRNA to hinder EGFR expression. The nanoparticles have 4 primary components (see FIG. 1): • 1. A biocompatible cationic mucic acid polymer (cMAP) that encapsulates siRNA with a charge ratio (+/−) of 1; • 2. 5-nitrophenyl boronic acid-mPEG (5-nPBA-mPEG), which binds to cMAP through boronic acids' interaction with diols present on cMAP, to form a coating of methoxy-polyethylene glycol (mPEG) in order to ensure particle stability in serum; • 3. Cetuximab, the targeting agent for the particle, also attached to cMAP through a 5-nitrophenyl boronic acid-PEG entity; and • 4. siRNA against EGFR (siEGFR), able to knock down EGFR mRNA expression to 20% at a 50 picomolar concentration (see SEQ ID NO: 1). The resulting nanoparticles are cetuximab-conjugated cMAP-siEGFR nanoparticles.

With “siEGFR: siRNA against EGFR, SEQ ID NO: 1 bound to SEQ ID NO: 2 (chain 1 UAAUUUCCAAAUUCCCAAGGAC; chain 2 CCUUGGGAAUUUGGAAAUUAUA; listed as RNA, chemistry not given here)” the “EGFR mRNA expression after knock down” value was 20%.
